Measurements published in patent US20040048237A1 (priority 2002, published 2004).
Peptide text beside a SMILES is read from it. * marks the point of attachment. Cbz = O=C(OCc1ccccc1)*

Key:
proteasome = assay type: cell-based

Row | Molecule | cells died (N2A cells) | cell death during proteasome inhibition relative to N2A cells (WtPN2A cells) | proteasome activity after MG132 treatment (proteasome) | proteasome activity restored after removal of MG132 (proteasome) | relative proteasome inhibiting activity (proteasome) | rate of N2A cell death (N2A cells)
1 | CC(C)C[C@@H](C=O)NC(=O)[C@H](CC(C)C)NC(=O)[C@H](CC(C)C)NC(=O)OCc1ccccc1 [MG132] (Cbz-Leu-Leu-Leu-aldehyde) | More than 50% | died much more rapidly | undetectable | > 70 % of control levels | stronger proteasome inhibiting activity than 10 μM Lactacystin | –
2 | epoxomicin | – | – | – | – | – | died at the same rates
